According to patent US20250121084A1, “ANTI-CLAUDIN-6 CONJUGATES” (priority 2023, published 2025):
Starred links: 1 amine or outer side, 2 acyl side, 3 side chain; linkers in the order of their positions; H or OH if unused. Non-standard residues stand in square brackets, D forms with d. Residues, ends and D or L forms follow the SMILES beside them. *: point of attachment. Exatecan = CC[C@@]1(O)C(=O)OCc2c1cc1n(c2=O)Cc2c-1nc1cc(F)c(C)c3c1c2[C@@H](N*)CC3; Propanoyl(3-maleimido) = O=C1C=CC(=O)N1CCC(=O)*; PABC = O=C(OCc1ccc(N[*:1])cc1)[*:2]

Columns and labels:
topo I/DNA complex = target: T1, topo I/DNA complex (Homo sapiens, UniProt P11387); details: versus SN38 (the active metabolite of irinotecan); cited from earlier work
T1 sequence (P11387 1-765): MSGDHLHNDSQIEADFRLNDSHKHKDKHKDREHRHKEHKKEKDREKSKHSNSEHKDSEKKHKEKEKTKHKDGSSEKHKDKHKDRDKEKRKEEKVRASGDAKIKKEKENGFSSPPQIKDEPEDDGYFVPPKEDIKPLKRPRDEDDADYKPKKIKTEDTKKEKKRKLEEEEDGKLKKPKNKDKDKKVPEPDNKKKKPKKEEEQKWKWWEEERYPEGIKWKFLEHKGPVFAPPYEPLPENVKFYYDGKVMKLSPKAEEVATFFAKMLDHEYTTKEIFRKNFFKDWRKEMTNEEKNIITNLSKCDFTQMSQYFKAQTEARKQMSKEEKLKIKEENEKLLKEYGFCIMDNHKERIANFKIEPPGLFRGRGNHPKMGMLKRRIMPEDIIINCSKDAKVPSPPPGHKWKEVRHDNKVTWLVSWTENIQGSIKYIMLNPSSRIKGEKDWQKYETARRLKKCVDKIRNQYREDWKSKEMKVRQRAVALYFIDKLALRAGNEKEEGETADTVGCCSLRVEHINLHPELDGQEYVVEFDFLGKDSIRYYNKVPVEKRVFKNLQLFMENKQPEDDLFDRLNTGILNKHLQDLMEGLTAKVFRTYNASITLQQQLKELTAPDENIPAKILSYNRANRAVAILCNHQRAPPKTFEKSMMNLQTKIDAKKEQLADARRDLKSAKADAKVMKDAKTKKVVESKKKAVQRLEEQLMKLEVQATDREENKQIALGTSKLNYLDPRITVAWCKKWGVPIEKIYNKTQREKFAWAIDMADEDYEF

a variety of cell lines = details: versus SN38; cited from earlier work
[1] = RP-HPLC retention time correlated with hydrophobicity; type: physicochemical; details: high Rt = hydrophobic, low Rt = hydrophilic
Protocol: A correlation study was also carried out using Reverse-Phase HPLC (RP-HPLC). The two constructs were injected in RP-HPLC and retention times (Rt) correlated with hydrophobicity—i.e., high Rt was associated to hydrophobic constructs whereas low Rt to hydrophilic ones.

[2] = Aggregation during conjugation to a test antibody (% monomer by SEC); type: physicochemical
Protocol: 2 mg of monoclonal antibody GB01 at 8.87 mg/ml was pH adjusted with 5% 0.5 M Tris, 0.025 M EDTA, pH 8.5 and reduced with 2.3 mol. eq. TCEP and then conjugated with 6 mol. eq. drug linker. After buffer exchange into 30 mM Histidine, 175 mM Sucrose pH 6.0/PBS, the drug to antibody ratio (DAR) was by HIC/LC-MS and % Monomer by size exclusion chromatography (SEC). Percentage monomer values of 95% or greater are assessed as low aggregation.
Aggregation levels were assessed during the conjugation to a test antibody. Conjugation was performed as described above for ADC1.
During conjugation, we are ideally targeting a monomer content or percentage monomer of 95% or above. Low percentage monomer values usually translate to a higher degree of aggregation. One could therefore agree that percentage monomer values of 95% or higher mean very low levels of aggregation or none, whereas values below this threshold often translate to higher levels of aggregation.

Compound | potency relative to SN38 at stabilizing the topo I/DNA complex (topo I/DNA complex) | potency relative to SN38 as a cytotoxin (a variety of cell lines) | Rt [1] | Aggregation [2] | Aggregation (% monomer) ([2]; 95% or greater = low aggregation)
CC[C@@]1(O)C(=O)OCc2c1cc1n(c2=O)Cc2c-1nc1cc(F)c(C)c3c1c2[C@@H](N)CC3 [Exatecan] | about 2.5 fold | about 2.5 fold | – | – | –
CC[C@@]1(O)C(=O)OCc2c1cc1n(c2=O)Cc2c-1nc1cc(F)c(C)c3c1c2[C@@H](NC(=O)OCc1ccc(NC(=O)[C@H](C)NC(=O)[C@@H](NC(=O)CNC(=O)CNC(=O)CNC(=O)CNC(=O)CNC(=O)CCN2C(=O)C=CC2=O)C(C)C)cc1)CC3 [Mal-Gly5-VA-PABC-Exatecan] ({Propanoyl(3-maleimido)}-GGGGGVA[PABC]-Exatecan) | – | – | 9.76 min | None | 98%
